Measurements from PMC3527569, “Anti-Inflammatory and Vasoprotective Activity of a Retroviral-Derived Peptide, Homologous to Human Endogenous Retroviruses: Endothelial Cell Effects” (PLoS ONE, 2012).
Entries after “also recorded” stand apart in the source; their conditions may differ. Where no end group is shown, it is not given here.

Legend:
[1] = test system: carrageenan-induced DIC; assay: Mouse carrageenan-induced DIC model, lethality; format: in vivo, mouse (CD-1); settings: data not shown
Protocol: Groups of 10 male CD-1 mice were injected i.p. with 0.25 ml of either vehicle (PBS) or peptide in vehicle at varying times prior to the i.p. injection of 1.0 ml of carrageenan (0.45% [w/v] in PBS; Sigma). In experiments where serum cytokine levels were determined, groups of 5 mice were euthanized at 1-, 2-, 4-, 8-, and 24-h post injection of carrageenan, blood collected by cardiac puncture into heparinized syringes, and the resultant plasma stored at −80°C until assayed by ELISA. […] At 1-, 2-, 4-, and 24-h post injection of carrageenan, five mice from each group were euthanized and heparinized blood samples collected from the heart using heparinized syringes for subsequent determinations of WBC (white blood cell) counts, RBC (red blood cell) counts, or PLT (platelet) counts.

[2] = qualitative ranking of the three peptides
[3] = test system: iNOS (inducible nitric oxide synthase) mRNA; assay: RT-PCR of iNOS mRNA in HUVEC; format: cell-based, human; settings: for induction of mRNA for iNOS in HUVEC: 50 µM peptide, 3 h, 37°C, quiescent HUVEC, RT-PCR
Protocol: (§1) Cells were cultured with various concentrations of test materials, either with or without stimulus, for varying times. The cells were collected, washed and total RNA isolated using the RNeasy Mini Kit (Qiagen; Valencia, CA). Following isolation the RNA was treated with 7 units of DNase I according to the RNase-Free DNase Set (Qiagen; Valencia, CA) protocol. Using these procedures we usually obtained ∼50 µg of total RNA/10^7 cells. cDNA was prepared from the isolated mRNAs and RT-PCR performed on the target cytokines/chemokines/growth factors using appropriate primer pairs and a control primer pair for β-actin (all from R & D Systems; Minneapolis, MN). RT-PCR was generally performed for 30 cycles for β-actin and 35–45 cycles for iNOS and VEGF.

[4] = test system: inflammation; set-up: method as in earlier work; settings: cited from earlier work
[5] = test system: inflammation; set-up: method as in earlier work; settings: cited from earlier work; remark: listed apart in the source
[6] = test system: lymphocyte proliferation; set-up: method as in PMID 1634759, PMID 1534759; settings: cited from earlier work
[7] = test system: human monocyte chemotactic responses; set-up: method as in PMID 1634759, PMID 1534759; settings: cited from earlier work
[8] = test system: nitrate in HUVEC supernatants; assay: NO release (nitrate as nitrite) from HUVEC; format: cell-based, human; settings: 50 µM peptide
Protocol: HUVEC were grown to 80–90% confluence in 12-well tissue culture plates using defined media provided by Cambrex and supplemented with 10% FBS. Triplicate wells were incubated with either media alone or media containing 50 µM of the indicated peptide. Supernatant samples were removed from each well at 6 h and 24 h post peptide addition and assayed for NO release as measured by the presence of nitrate (converted to nitrite) using a kit supplied by Oxford Biomedical Research (Rochester Hill, MI) according to the manufacturer's instructions.

[9] = test system: HUVEC; assay: Staurosporine-induced apoptosis in HUVEC (Cell Death Detection ELISA); format: cell-based, human; settings: for protection against staurosporine-induced apoptosis: 50 µM peptide 3 h before staurosporine (500 nM), measured 18 h after staurosporine (Figure 11B)
Protocol: Apoptosis was measured in HUVEC using the Cell Death Detection ELISA^PLUS kit (Roche Diagnostics; Indianapolis, IN) according to the manufacturer's instructions. This assay is based on a quantitative sandwich-enzyme-immunoassay using mouse monoclonal antibodies directed against both DNA and histones, respectively. It allows the specific determination of mono- and oligonucleosomes in the cytoplasmic fraction of cell lysates (apoptosis) and in the supernatant of dying cells (necrosis). The apoptotic index (AI) was calculated as
where treatment refers to use of a known apoptosis- or necrosis-inducing agent (staurosporine, TNF-α).

[10] = test system: inflammatory accumulation of monocytes/macrophages; assay: Mouse NaIO4-induced inflammatory peritonitis model; format: in vivo, mouse (CD-1); settings: monocyte/macrophage accumulation at 48 h; for Dose Achieving Maximum Inhibition (nmoles) / Dose Achieving Maximum Inhibition (µg): CD-1 mice, agent s.c. 24 h before i.p. NaIO4; for Maximum Inhibition (%): groups of five CD-1 mice, agent s.c. 24 h before i.p. NaIO4 (5 mM, 1.0 ml), one experiment; for IC50 (nmoles) / IC50 (µg): in vivo dose per mouse, s.c. 24 h before i.p. NaIO4
Protocol: Effects of test compounds on the inflammatory accumulation of monocytes/macrophages or neutrophils in vivo were determined using a mouse peritonitis model. Briefly, groups of five 6–8 week old CD-1 outbred mice (Charles River; Raleigh, NC) were injected intraperitoneally (i.p.) with 1.0 ml of a sterile inflammatory stimulus (NaIO4; 5 mM in sterile isotonic saline; Sigma; St. Louis, MO). This procedure results in a dramatic accumulation of neutrophils in the peritoneal cavity which peaks at 6–8 h post injection, followed by an accumulation of monocytes/macrophages which peaks at 48–72 h post injection. Mice were euthanized by CO2 asphyxiation at either 6 h (for neutrophils) or 48 h (for monocyte/macrophages), the peritoneal cavities lavaged with two 10-ml washes of heparinized (10 u/ml; Sigma; St. Louis, MO) HBSS containing 0.1% (w/v) BSA, the washes pooled, and total and differential cells counts determined for each pooled cell suspension. Each test material was evaluated in a group of five mice, each of which was injected subcutaneously in the thigh with 0.2 ml of test material in HBSS 24 h prior to the i.p. injection of the inflammatory stimulus.

[11] = test system: systolic blood pressure; assay: SHR rat hypertension model (tail cuff); format: in vivo; settings: 100 mg/kg orally (gavage), groups of 3 SHR rats, tail cuff, vs 0 h value
Protocol: As part of a general pharmacological screen, MN10021 was evaluated in a rat model of hypertension by MDS-PanLabs (Bothell, WA). […] Blood pressure measurements were made by tail cuff at 1, 2, and 4 h post administration of test compounds. A decrease of ≥10% of the baseline systolic blood pressure is considered significant in this assay.

[12] = test system: iNOS mRNA; assay: iNOS mRNA induction in HUASMC; format: cell-based, human; settings: compared with MN10021
Protocol: as §1

[13] = test system: dengue virus; assay: Vascular leak in liver of mice injected with dengue virus; set-up: species or system mouse; settings: 1 µg intraperitoneal; dengue virus i.v.; preliminary in vivo studies
[14] = test system: endothelial nitric oxide synthase (eNOS) mRNA; assay: RT-PCR of eNOS mRNA in HUVEC; format: cell-based, human; settings: data not shown
Protocol: as §1

**Q.** With `N=C(N)NN` [aminoguanidine] as the molecule, how does the “ability to protect mice in DIC model” value [1] read?
**A.** no success

**Q.** For acetyl-GLDLLFLK-acetyl [DUK0004], which “relative solubility among DUK0004, DUK0005, DUK0006” value (“relative solubility among DUK0004” for short) [2] is on record?
**A.** least soluble

**Q.** And the “induction of mRNA for iNOS in HUVEC” value [3]?
**A.** comparable

**Q.** What does the source list for “LDLLFL [hexapeptide corresponding to the central six amino acids of DUK0005, studied by other investigators]”?
**A.** anti-inflammatory activity in mice [4]: did not find this hexapeptide to be anti-inflammatory; anti-inflammatory activity in guinea pigs [5]: did not find this hexapeptide to be anti-inflammatory; effect on ligand (CD3) and interleukin-2 (IL-2)-induced lymphocyte proliferation [6]: inhibited; effect on in vitro human monocyte chemotactic responses [7]: inhibited

**Q.** With Ac-GLDLLYLK-NH2 [DUK0007] as the molecule, how does the “nitrate release, percent of MN10021” value ([8]; 6 h and ON incubations) read?
**A.** ≤ 25%

**Q.** And the “protection against staurosporine-induced apoptosis” value [9]?
**A.** no protective effective

**Q.** And the “induction of mRNA for iNOS in HUVEC” value [3]?
**A.** does not induce iNOS

**Q.** What about the “effect on induction of iNOS by DUK005 when combined 1:1” value ([3]; HUVEC, data not shown) of the same molecule?
**A.** inhibits the induction of iNOS

**Q.** For `C[C@@H]1C[C@H]2[C@@H]3CCC4=CC(=O)C=C[C@]4(C)[C@@]3(F)[C@@H](O)C[C@]2(C)[C@@]1(O)C(=O)CO` [Dexamethasone], which “Dose Achieving Maximum Inhibition (nmoles)” value [10] is on record?
**A.** 204 nmol

**Q.** What about the “Dose Achieving Maximum Inhibition (µg)” value [10] of the same molecule?
**A.** 80 µg

**Q.** What about the “Maximum Inhibition (%)” value [10] of the same molecule?
**A.** 75%

**Q.** And the “ability to protect mice in DIC model” value [1]?
**A.** no success

**Q.** Which “Dose Achieving Maximum Inhibition (nmoles)” value [10] does the source give for `CC(=O)Nc1ccc(O)cc1` [Acetaminophen, acetaminophen] here?
**A.** 6614 nmol

**Q.** And the “Dose Achieving Maximum Inhibition (µg)” value [10]?
**A.** 1000 µg

**Q.** And the “Maximum Inhibition (%)” value [10]?
**A.** 95%

**Q.** What about the “IC50 (nmoles)” value [10] of the same molecule?
**A.** 132 nmol

**Q.** And the “IC50 (µg)” value [10]?
**A.** 20 µg

**Q.** And the “ability to protect mice in DIC model” value [1]?
**A.** no success

**Q.** Which “ability to protect mice in DIC model” value [1] does the source give for `COc1ccc2c(c1)c(CC(=O)O)c(C)n2C(=O)c1ccc(Cl)cc1` [indomethacin] here?
**A.** no success

**Q.** Which results are given for `C[C@](N)(Cc1ccc(O)c(O)c1)C(=O)O` [L-methyldopa, reference compound]?
**A.** decrease in blood pressure at 1 h [11]: 16%; decrease in blood pressure at 2 h [11]: 23%; decrease in blood pressure at 4 h [11]: 28%

**Q.** With GLDLLFLK-NH2 [DUK0006] as the molecule, how does the “relative solubility among DUK0004” value [2] read?
**A.** most soluble

**Q.** What about the “induction of mRNA for iNOS in HUVEC” value [3] of the same molecule?
**A.** comparable

**Q.** With `O=C(O)Cc1ccccc1Nc1c(Cl)cccc1Cl` [Diclofenac, diclofenac] as the molecule, how does the “Dose Achieving Maximum Inhibition (nmoles)” value [10] read?
**A.** 314 nmol

**Q.** What about the “Dose Achieving Maximum Inhibition (µg)” value [10] of the same molecule?
**A.** 100 µg

**Q.** What about the “Maximum Inhibition (%)” value [10] of the same molecule?
**A.** 90%

**Q.** And the “IC50 (nmoles)” value [10]?
**A.** 16 nmol

**Q.** And the “IC50 (µg)” value [10]?
**A.** 5 µg

**Q.** What about the “ability to protect mice in DIC model” value [1] of the same molecule?
**A.** no success

**Q.** Which “ability to protect mice in DIC model” value [1] does the source give for `CCN(CC)CCCC(C)Nc1c2ccc(Cl)cc2nc2ccc(OC)cc12` (stereo not shown) [quinacrine] here?
**A.** no success

**Q.** With `CN[C@@H]1C[C@H]2O[C@@](C)([C@@H]1OC)n1c3ccccc3c3c4c(c5c6ccccc6n2c5c31)C(=O)NC4` [staurosporine] as the molecule, how does the “ability to protect mice in DIC model” value [1] read?
**A.** no success

**Q.** Which “ability to protect mice in DIC model” value [1] does the source give for `COc1ccc2cc([C@H](C)C(=O)O)ccc2c1` [naproxen] here?
**A.** no success

**Q.** With GLDLLFLK [DUK0001] as the molecule, how does the “induction of mRNA for iNOS in HUVEC” value [3] read?
**A.** weak induction

**Q.** With Ac-GLDLLFLK-NH2 [DUK0005] as the molecule, how does the “nitrate release (as measured by nitrite assay) from HUVEC” value ([8]; 6 h or ON) read?
**A.** induced nitrate release

**Q.** What about the “induction of iNOS mRNA in HUASMC” value [12] of the same molecule?
**A.** as effective as MN10021

**Q.** What about the “effect on vascular leak in the liver of dengue virus-injected mice” value [13] of the same molecule?
**A.** inhibit the vascular leak

**Q.** What about the “protection against staurosporine-induced apoptosis” value [9] of the same molecule?
**A.** significant protection

**Q.** What about the “effect of L-NAME pretreatment on protective effect against staurosporine-induced apoptosis” value ([9]; 2 mM L-NAME 5 h, then 50 µM peptide 3 h, staurosporine 500 nM ON (Figure 12)) of the same molecule?
**A.** no effect

**Q.** And the “maximal protection against staurosporine-induced apoptosis” value ([9]; peptide added 3 h before staurosporine, up to 50 µM peptide, quadruplicate wells (Figure 10A, 10C))?
**A.** ~40%

**Q.** What about the “relative solubility among DUK0004” value [2] of the same molecule?
**A.** intermediate

**Q.** And the “effect on expression of mRNA for eNOS” value [14]?
**A.** Neither MN10021 nor DUK0005 affected

**Q.** And the “induction of mRNA for iNOS in HUVEC” value [3]?
**A.** most effective; also recorded: as effective as MN10021
